Data reported in the Kinase Knowledgebase extract (Sharma et al. 2016).

These molecules were tested against EGFR (UniProt P00533).
Chain of EGFR (P00533 whole entry, looked up): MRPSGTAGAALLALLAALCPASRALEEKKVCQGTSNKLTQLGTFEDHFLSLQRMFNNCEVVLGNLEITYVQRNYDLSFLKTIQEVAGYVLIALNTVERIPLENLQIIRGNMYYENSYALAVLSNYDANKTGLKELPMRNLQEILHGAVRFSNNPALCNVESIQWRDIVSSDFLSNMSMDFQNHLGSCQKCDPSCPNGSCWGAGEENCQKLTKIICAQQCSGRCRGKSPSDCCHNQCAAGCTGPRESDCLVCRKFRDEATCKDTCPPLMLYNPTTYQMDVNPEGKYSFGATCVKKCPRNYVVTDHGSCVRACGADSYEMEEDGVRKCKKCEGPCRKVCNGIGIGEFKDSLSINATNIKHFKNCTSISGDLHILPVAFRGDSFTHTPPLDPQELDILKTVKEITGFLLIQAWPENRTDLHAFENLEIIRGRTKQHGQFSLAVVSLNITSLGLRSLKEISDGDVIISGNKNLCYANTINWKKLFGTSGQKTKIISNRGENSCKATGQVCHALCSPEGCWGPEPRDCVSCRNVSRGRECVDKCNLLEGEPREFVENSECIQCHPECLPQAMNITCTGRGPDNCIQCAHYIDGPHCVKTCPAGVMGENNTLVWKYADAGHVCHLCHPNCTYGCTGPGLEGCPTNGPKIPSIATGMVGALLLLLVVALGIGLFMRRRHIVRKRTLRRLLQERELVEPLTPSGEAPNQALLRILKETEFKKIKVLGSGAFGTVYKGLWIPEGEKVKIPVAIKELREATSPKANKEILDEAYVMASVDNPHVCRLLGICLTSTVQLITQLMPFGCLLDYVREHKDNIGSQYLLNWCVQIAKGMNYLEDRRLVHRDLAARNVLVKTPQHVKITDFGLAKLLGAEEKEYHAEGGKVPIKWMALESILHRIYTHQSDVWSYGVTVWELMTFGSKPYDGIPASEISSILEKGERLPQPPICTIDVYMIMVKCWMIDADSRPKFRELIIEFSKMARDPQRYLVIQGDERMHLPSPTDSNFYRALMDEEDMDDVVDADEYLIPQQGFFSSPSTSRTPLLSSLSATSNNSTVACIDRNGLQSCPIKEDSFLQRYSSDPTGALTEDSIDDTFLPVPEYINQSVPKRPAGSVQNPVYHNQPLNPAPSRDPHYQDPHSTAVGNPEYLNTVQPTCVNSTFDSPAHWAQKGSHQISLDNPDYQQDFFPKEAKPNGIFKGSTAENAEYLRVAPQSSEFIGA
In the case of `C=CC(=O)NCCCNc1cc2c(Nc3ccc(Br)cc3F)ncnc2cc1OCC1CCN(C(C)=O)CC1`, the IC50 is reported as 35 nM. `C=CC(=O)Nc1cc2c(Nc3ccc(Br)cc3F)ncnc2cc1OCCNC(=O)CCCN(C)C` was tested, and the IC50 was 21 nM. `C=CC(=O)Nc1cc2c(Nc3ccc(Br)cc3F)ncnc2cc1OCCNC(=O)CCC` showed an IC50 of 32 nM. For `C=CC(=O)Nc1cc2c(Nc3ccc(Br)cc3F)ncnc2cc1OCCNC(=O)CC(C)N(C)C` (stereo not given), the IC50 was 325 nM. `C=CC(=O)Nc1cc2c(Nc3ccc(Br)c(F)c3F)ncnc2cc1OCCNC(=O)CCCN(C)C` showed an IC50 of 568 nM. In the case of `C=CC(=O)NCCCNc1cc2c(Nc3ccc(F)c(F)c3F)ncnc2cc1OCC1CCN(C)CC1`, the IC50 is reported as 12 nM. Work on `C=CC(=O)NCCCNc1cc2c(Nc3ccc(Br)cc3F)ncnc2cc1OCC1CCN(C(=O)C=C)CC1` yielded an IC50 of 68 nM. `C=CC(=O)Nc1cc2c(Nc3ccc(Br)cc3F)ncnc2cc1OCCOC(=O)CC(=O)OCC` showed an IC50 of 246 nM. `C=CC(=O)NCCC(=O)Nc1cc2c(Nc3ccc(Br)cc3F)ncnc2cc1OCC1CCN(C)CC1` was tested, and the IC50 was 80 nM. For `C=CC(=O)NCCCNc1cc2c(Nc3ccc(Br)cc3F)ncnc2cc1OCC1CCN(C)CC1`, the IC50 was 11 nM. In the case of `C=CC(=O)Nc1cc2c(Nc3ccc(Br)cc3F)ncnc2cc1OCC(=O)NCCN(C)C`, the IC50 is reported as 652 nM. With `C=CC(=O)Nc1cc2c(Nc3ccc(Br)cc3F)ncnc2cc1OCCOC(=O)CC(=O)O` the IC50 was 956 nM. With `C=CC(=O)NCCNc1cc2c(Nc3ccc(Br)cc3F)ncnc2cc1OCC1CCN(C)CC1` the IC50 was 76 nM. Work on `C=CC(=O)NCCCNc1cc2c(Nc3ccc(Br)cc3F)ncnc2cc1OCC1CCN(C(=O)CC)CC1` yielded an IC50 of 56 nM. Work on `C=CC(=O)Nc1cc2c(Nc3ccc(Br)c(Cl)c3F)ncnc2cc1OCCNC(=O)CCCN(C)C` yielded an IC50 of 28 nM.
